Measured values published in ChEMBL document CHEMBL1146824, “Synthesis and evaluation of indenopyrazoles as cyclin-dependent kinase inhibitors. Part 4: Heterocycles at C3” (Bioorg Med Chem Lett, 2004).

What was measured:
[1] = Binding affinity for Cyclin-dependent kinase 4-cyclin E
[2] = target: Cyclin-dependent kinase 4/cyclin D1 (Homo sapiens, UniProt P11802); assay: Binding affinity for Cyclin-dependent kinase 4-cyclin D1; type: protein-complex assay
HCT-116 [3] = assay: Inhibition of HCT116 cellular proliferation; type: functional, cell-based; conditions: Homo sapiens
HCT-116 [4] = assay: Inhibition of HCT116 cell proliferation in the presence of human serum albumin and alpha-1-acidglycoprotein; type: functional, cell-based
AG1523 [5] = assay: Inhibition of proliferation AG1523 (human fibroblast) cell line.; type: functional, cell-based
HCT-116 [6] = assay: Inhibition of cellular proliferation of HCT116 cell line in the presence of human serum albumin and alpha-1-acidglycoprotein; type: functional, cell-based
AG1523 [7] = assay: Inhibition of AG1523 (arrested) cell proliferation; type: functional, cell-based; conditions: Homo sapiens
B16 = assay: Inhibition of B16-F1 cell proliferation; type: functional, cell-based; conditions: Mus musculus
[8] = target: Cyclin-dependent kinase 2/cyclin A (Homo sapiens, UniProt P24941); assay: Inhibition of Cyclin-dependent kinase 2-cyclin A; type: protein-complex assay
[9] = target: Cyclin-dependent kinase 1/cyclin B (Homo sapiens, UniProt P06493); assay: Inhibition of cyclin-dependent kinase 1-cyclin B; type: protein-complex assay
NCI-H1299 = assay: Inhibition of H1299 cell proliferation; type: functional, cell-based; conditions: Homo sapiens
HT-1080 = assay: Inhibition of HT1080 cell proliferation; type: functional, cell-based; conditions: Homo sapiens
HMEC = assay: Inhibition of HMEC cell proliferation; type: functional, cell-based; conditions: Homo sapiens
L1210 = assay: Inhibition of L1210 cell proliferation; type: functional, cell-based; conditions: Mus musculus
MCF7 = assay: Inhibition of MCF-7 cell proliferation; type: functional, cell-based; conditions: Homo sapiens
MIA PaCa-2 = assay: Inhibition of MiaPaCa2 cell proliferation; type: functional, cell-based; conditions: Homo sapiens
NCI-H460 = assay: Inhibition of NCI-H460 cell proliferation; type: functional, cell-based; conditions: Homo sapiens
NCI-H358 = assay: Inhibition of NCI-H358 cell proliferation; type: functional, cell-based; conditions: Homo sapiens
PC-3 = assay: Inhibition of PC3 cell proliferation; type: functional, cell-based; conditions: Homo sapiens
[10] = target: cAMP-dependent protein kinase (PKA) (Homo sapiens, UniProt P22694+P17612+P22612); assay: Inhibition of protein kinase A; type: protein assay
[11] = target: Tyrosine-protein kinase ABL1 (Homo sapiens, UniProt P00519); assay: Inhibition of c-Abl tyrosine kinase
Sequence of Tyrosine-protein kinase ABL1 (P00519 whole entry): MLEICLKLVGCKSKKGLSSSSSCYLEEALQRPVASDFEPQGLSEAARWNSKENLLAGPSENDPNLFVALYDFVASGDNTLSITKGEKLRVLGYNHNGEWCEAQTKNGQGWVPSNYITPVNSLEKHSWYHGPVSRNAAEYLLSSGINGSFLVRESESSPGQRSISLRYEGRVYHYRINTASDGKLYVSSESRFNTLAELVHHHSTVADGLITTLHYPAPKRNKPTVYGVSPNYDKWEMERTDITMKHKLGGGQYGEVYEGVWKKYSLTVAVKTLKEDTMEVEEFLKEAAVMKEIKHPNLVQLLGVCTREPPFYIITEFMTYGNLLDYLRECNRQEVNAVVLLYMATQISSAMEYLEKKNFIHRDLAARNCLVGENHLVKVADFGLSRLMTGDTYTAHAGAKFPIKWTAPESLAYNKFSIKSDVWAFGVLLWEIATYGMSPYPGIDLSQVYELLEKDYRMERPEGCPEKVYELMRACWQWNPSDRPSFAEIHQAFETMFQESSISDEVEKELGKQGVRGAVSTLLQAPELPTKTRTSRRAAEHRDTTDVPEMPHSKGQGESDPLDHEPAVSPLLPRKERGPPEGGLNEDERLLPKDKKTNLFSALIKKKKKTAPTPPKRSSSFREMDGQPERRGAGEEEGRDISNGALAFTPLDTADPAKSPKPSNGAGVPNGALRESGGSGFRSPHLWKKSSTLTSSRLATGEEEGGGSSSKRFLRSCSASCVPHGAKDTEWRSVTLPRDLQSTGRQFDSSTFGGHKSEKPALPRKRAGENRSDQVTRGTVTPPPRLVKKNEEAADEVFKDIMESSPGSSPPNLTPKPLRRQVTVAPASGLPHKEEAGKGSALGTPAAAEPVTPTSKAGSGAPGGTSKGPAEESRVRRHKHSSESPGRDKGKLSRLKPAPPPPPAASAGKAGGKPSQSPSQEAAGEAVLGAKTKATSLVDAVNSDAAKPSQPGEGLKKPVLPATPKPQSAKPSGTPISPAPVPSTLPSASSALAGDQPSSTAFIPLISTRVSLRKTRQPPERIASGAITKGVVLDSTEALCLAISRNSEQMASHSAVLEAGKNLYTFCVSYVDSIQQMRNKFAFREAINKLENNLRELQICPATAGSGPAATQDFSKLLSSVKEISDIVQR

HT-29 = assay: Inhibition of HT-29 cell proliferation; type: functional, cell-based; conditions: Homo sapiens
SKUT-1A = assay: Inhibition of Skut 1A cell proliferation; type: functional, cell-based; conditions: Homo sapiens

Sequence of Cyclin-dependent kinase 4/cyclin D1 (P11802 whole entry): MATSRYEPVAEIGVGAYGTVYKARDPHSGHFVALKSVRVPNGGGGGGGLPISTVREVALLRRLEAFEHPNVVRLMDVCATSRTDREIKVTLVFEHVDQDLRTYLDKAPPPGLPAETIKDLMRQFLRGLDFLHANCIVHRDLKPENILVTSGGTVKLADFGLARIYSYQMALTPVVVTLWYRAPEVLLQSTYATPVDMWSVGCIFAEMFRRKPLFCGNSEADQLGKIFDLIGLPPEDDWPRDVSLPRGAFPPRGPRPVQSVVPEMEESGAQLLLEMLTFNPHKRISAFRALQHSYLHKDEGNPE
Sequence of Cyclin-dependent kinase 4/cyclin D1 (P24385 whole entry, further chain): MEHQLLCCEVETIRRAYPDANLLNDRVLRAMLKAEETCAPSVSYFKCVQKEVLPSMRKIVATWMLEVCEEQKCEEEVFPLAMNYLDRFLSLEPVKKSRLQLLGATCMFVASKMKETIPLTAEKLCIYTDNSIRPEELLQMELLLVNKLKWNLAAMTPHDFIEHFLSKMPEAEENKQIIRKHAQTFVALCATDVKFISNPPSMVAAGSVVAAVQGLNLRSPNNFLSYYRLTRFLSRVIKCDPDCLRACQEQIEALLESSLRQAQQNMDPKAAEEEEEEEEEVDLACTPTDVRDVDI

SMILES | IC50 [1] [µM] | IC50 [2] [µM] | IC50 (HCT-116 [3]) [µM] | IC50 (AG1523 [5]) [µM] | other results
CN(C)CCNC(=O)c1ccc(-c2[nH]nc3c2C(=O)c2c(NC(=O)NN4CCOCC4)cccc2-3)s1 | 0.021 | 0.015 | > 0.8 |  | 
CCN1CCCN(C(=O)c2ccc(-c3[nH]nc4c3C(=O)c3c(NC(=O)NN5CCOCC5)cccc3-4)s2)CC1 | 0.014 | 0.007 | 0.033 |  | IC50 (HCT-116 [4]): 7.1 µM
Cc1nc(C)c(-c2[nH]nc3c2C(=O)c2c(NC(=O)NN4CCOCC4)cccc2-3)s1 | 0.009 | > 0.37 | 0.008 | > 19 | IC50 (HCT-116 [4]): 0.5 µM
O=C(Nc1cccc2c1C(=O)c1c(-c3ccc(C(=O)N4CCCNCC4)s3)n[nH]c1-2)NN1CCOCC1 | 0.006 | 0.003 | 0.195 |  | IC50 (HCT-116 [4]): > 19.7 µM
CN(C)NC(=O)Nc1cccc2c1C(=O)c1c(-c3ccco3)n[nH]c1-2 | 0.026 | 0.635 | 0.16 |  | 
O=C(Nc1cccc2c1C(=O)c1c(-c3ccc(C(=O)N4CCCCC4)s3)n[nH]c1-2)NN1CCOCC1 | 0.025 | 0.022 | 0.052 |  | IC50 (HCT-116 [6]): 16.8 µM
CN(C)NC(=O)Nc1cccc2c1C(=O)c1c(-c3ccsc3)n[nH]c1-2 | 0.024 | 0.107 | 0.068 | 0.605 | 
Cc1cc(-c2n[nH]c3c2C(=O)c2c(NC(=O)NN4CCN(C)CC4)cccc2-3)c(C)s1 | 0.012 | 0.09 | 0.024 | 0.205 | 
CNC1CCN(C(=O)c2ccc(-c3[nH]nc4c3C(=O)c3c(NC(=O)NN5CCOCC5)cccc3-4)s2)C1 (configuration not stated) | 0.011 | 0.005 | 0.23 |  | IC50 (HCT-116 [4]): 8.5 µM
CN(C)NC(=O)Nc1cccc2c1C(=O)c1c(-c3csc(Cl)c3)n[nH]c1-2 | 0.007 | 0.021 | 0.064 | 0.615 | 
Cc1cc(-c2n[nH]c3c2C(=O)c2c(NC(=O)NN(C)C)cccc2-3)c(C)s1 | 0.026 | 0.515 | 0.11 | 1.5 | 
NC1CCN(C(=O)c2ccc(-c3[nH]nc4c3C(=O)c3c(NC(=O)NN5CCOCC5)cccc3-4)s2)C1 (configuration not stated) | 0.039 | 0.035 | > 0.8 |  | 
O=C(Nc1cccc2c1C(=O)c1c-2n[nH]c1-c1csc(Cl)c1)NN1CCOCC1 | 0.01 | 0.007 | 0.035 | 0.385 | 
CCOC(=O)c1ccc(-c2[nH]nc3c2C(=O)c2c(NC(=O)NN4CCN(C)CC4)cccc2-3)s1 | 0.036 | 0.03 | 0.046 |  | 
CN1CCN(C(=O)c2ccc(-c3[nH]nc4c3C(=O)c3c(NC(=O)NN5CCOCC5)cccc3-4)s2)CC1 | 0.032 | 0.01 | 0.11 | 0.485 | IC50 (HCT-116 [6]): 9.94 µM
CN(C)NC(=O)Nc1cccc2c1C(=O)c1c(-c3cccs3)n[nH]c1-2 | 0.036 | 0.34 | 0.075 | 0.905 | 
CN(C)C1CCCN(C(=O)c2ccc(-c3[nH]nc4c3C(=O)c3c(NC(=O)NN5CCOCC5)cccc3-4)s2)C1 (configuration not stated) | 0.024 | 0.013 | 0.188 |  | IC50 (HCT-116 [6]): 11.8 µM

SMILES | IC50 [1] [µM] | IC50 [2] [µM] | IC50 (HCT-116 [3]) [µM] | IC50 (AG1523 [5]) [µM] | other results
Cc1ccc(-c2n[nH]c3c2C(=O)c2c(NC(=O)NN(C)C)cccc2-3)s1 | 0.025 | 0.081 | 0.048 | 0.64 | 
CCOC(=O)c1ccc(-c2[nH]nc3c2C(=O)c2c(NC(=O)NN(C)C)cccc2-3)s1 | 0.028 | 0.185 | 0.38 | 2.8 | 
CCN1CCN(C(=O)c2ccc(-c3[nH]nc4c3C(=O)c3c(NC(=O)NN5CCOCC5)cccc3-4)s2)CC1 | 0.019 | 0.005 | 0.063 |  | IC50 (HCT-116 [6]): 14.3 µM
O=C(Nc1cccc2c1C(=O)c1c(-c3ccc(C(=O)NCCN4CCOCC4)s3)n[nH]c1-2)NN1CCOCC1 | 0.051 | 0.086 | 0.86 |  | 
CCOC(=O)c1ccc(-c2[nH]nc3c2C(=O)c2c(NC(=O)NN4CCOCC4)cccc2-3)s1 | 0.031 | 0.03 | 0.11 | > 17 | IC50 (HCT-116 [4]): 3.2 µM
Cc1nc(C)c(-c2n[nH]c3c2C(=O)c2c(NC(=O)NN(C)C)cccc2-3)s1 | 0.004 | 0.15 |  |  | 
Cc1cc(-c2[nH]nc3c2C(=O)c2c(NC(=O)NN4CCOCC4)cccc2-3)c(C)s1 | < 0.008 | 0.125 | 0.025 | 0.345 | 
CN(C)C1CCN(C(=O)c2ccc(-c3[nH]nc4c3C(=O)c3c(NC(=O)NN5CCOCC5)cccc3-4)s2)C1 (configuration not stated) | 0.044 | 0.012 | 0.064 | 0.33 | IC50 (HCT-116 [4]): 2.54 µM
O=C(Nc1cccc2c1C(=O)c1c(-c3ccc(C(=O)NCCN4CCCC4)s3)n[nH]c1-2)NN1CCOCC1 | 0.025 | 0.023 | 0.475 | 0.68 | 
CN(C)C1CCN(C(=O)c2ccc(-c3[nH]nc4c3C(=O)c3c(NC(=O)NN5CCOCC5)cccc3-4)s2)CC1 | 0.023 | 0.008 | 0.21 | 1 | IC50 (HCT-116 [6]): > 15.1 µM
Cc1nc(C)c(-c2[nH]nc3c2C(=O)c2c(NC(=O)NN4CCN(C)CC4)cccc2-3)s1 |  | 0.046 | 0.014 | > 21 | IC50 (AG1523 [7]): > 21 µM; IC50 (B16): 0.16 µM; IC50 [8]: 0.013 µM; IC50 [9]: 0.006 µM; IC50 (HCT-116 [4]): 0.26 µM; IC50 (NCI-H1299): 0.012 µM; IC50 (HT-1080): 0.03 µM; IC50 (HMEC): 0.055 µM; IC50 (L1210): 0.105 µM; IC50 (MCF7): 0.023 µM; IC50 (MIA PaCa-2): 0.026 µM; IC50 (NCI-H460): 0.104 µM; IC50 (NCI-H358): 0.018 µM; IC50 (PC-3): 0.125 µM; IC50 [10]: > 42 µM; IC50 [11]: 17.6 µM; IC50 (HT-29): 0.087 µM; IC50 (SKUT-1A): 0.025 µM
COc1ccc(-c2[nH]nc3c2C(=O)c2c(NC(=O)NN(C)C)cccc2-3)s1 | 0.032 | 0.084 | 0.13 | 1.55 | 
O=C(Nc1cccc2c1C(=O)c1c(-c3ccc(C(=O)NCCN4CCCCC4)s3)n[nH]c1-2)NN1CCOCC1 | 0.031 | 0.022 | 0.02 | 0.255 | 
CN1CCCN(C(=O)c2ccc(-c3[nH]nc4c3C(=O)c3c(NC(=O)NN5CCOCC5)cccc3-4)s2)CC1 | 0.015 | 0.004 | 0.019 | 0.063 | IC50 (HCT-116 [4]): 0.87 µM
O=C(Nc1cccc2c1C(=O)c1c(-c3ccc(C(=O)N4CCCCCC4)s3)n[nH]c1-2)NN1CCOCC1 | 0.023 | 0.017 | 0.053 |  | IC50 (HCT-116 [4]): 8.32 µM
O=C(Nc1cccc2c1C(=O)c1c(-c3ccc(C(=O)N4CCNCC4)s3)n[nH]c1-2)NN1CCOCC1 | 0.038 | 0.004 | 0.7 |  | IC50 (HCT-116 [6]): 15.4 µM
Cc1ccc(-c2[nH]nc3c2C(=O)c2c(NC(=O)NN4CCOCC4)cccc2-3)s1 | 0.01 | 0.023 | 0.025 | 0.285 | 
